Test results taken from EPA's ToxValDB 9.5 (doi:10.2903/j.efsa.2020.6230).
Values after ≈ are worked out from the molar mass of the structure shown.

Experiments:
Oncorhynchus mykiss = conditions: for LC50: acute, duration: 96 hours, mortality
Rattus norvegicus = conditions: acute; oral; mortality
Pleurozium sp. = conditions: acute; duration: 72 hours; growth
Anas platyrhynchos = conditions: reproductive
Apis mellifera = conditions: acute, duration: 48 hours, mortality
Colinus virginianus = conditions: acute; oral; mortality
Daphnia magna = conditions: chronic/long-term; duration: 28 days; reproduction
Folsomia candida = conditions: chronic/long-term; reproduction
Mus musculus = conditions: acute; oral; mortality
Oryctolagus sp. = conditions: developmental; development
Salmo salar = conditions: acute; duration: 96 hours; mortality
Tagia sp. = conditions: chronic/long-term; reproduction
Aphidius rhopalosiphi = test: LR50; higher = less toxic; conditions: not reported; mortality

## O=C1NC(=O)C2CC=CCC12 (configuration not stated) [1,2,3,6-Tetrahydrophthalimide]
Oncorhynchus mykiss
  LC50: > 120 µg/mL
Rattus norvegicus
  LD50: ≥ 1470 mg/kg-day

## NC(=O)C1CC=CCC1C(=O)O (configuration not stated) [6-[Hydroxy(imino)methyl]cyclohex-3-ene-1-carboxylic acid]
Oncorhynchus mykiss
  LC50: > 120 µg/mL
Pleurozium sp.
  NOEC: 32 mg/L

## O=C1C2CC=CCC2C(=O)N1SC(Cl)(Cl)Cl (configuration not stated) [Captan]
Anas platyrhynchos
  NOEL: 74.4 mg/kg-day
Apis mellifera; dermal
  LD50: > 200 µg/piece
Apis mellifera; oral, unspecified
  LD50: > 100 µg/piece
Colinus virginianus
  LD50: > 2000 mg/kg-day
Daphnia magna
  NOEC: 0.4 mg/L
Folsomia candida
  NOEC: 100 mg/kg
Mus musculus
  LD50: 3720 mg/kg-day
Oncorhynchus mykiss
  LC50: 0.0147 µg/mL (≈ 0.0489 µM)
Oncorhynchus mykiss; chronic/long-term, duration: 95 days, growth
  NOEC: 0.2 mg/L
Oryctolagus sp.
  NOAEL: 20 mg/kg-day
Salmo salar
  LC50: 0.0913 µg/mL (≈ 0.304 µM)
Tagia sp.
  NOEC: 7.3 mg/kg
Aphidius rhopalosiphi
  LR50: > 3200 g/ha
